Data published in PubChem BioAssay (NCI).
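The compound was tested at five concentrations on cells cultured in 96-well plates, with a 48-hour exposure period. GI50 = concentration required for 50% inhibition of growth. The concentration for full growth arrest is given as TGI.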

Legend:
Assay in all cases: NCI-60 cell line screen, 48 h
A498 renal = tested on: A498 renal
HCT-15 colon = tested on: HCT-15 colon
IGROV1 ovarian = tested on: IGROV1 ovarian
NCI-H226 lung = tested on: NCI-H226 lung
OVCAR-8 ovarian = tested on: OVCAR-8 ovarian
SK-MEL-28 melanoma = tested on: SK-MEL-28 melanoma
SK-MEL-5 melanoma = tested on: SK-MEL-5 melanoma
SK-OV-3 ovarian = tested on: SK-OV-3 ovarian
SW-620 colon = tested on: SW-620 colon
UACC-257 melanoma = tested on: UACC-257 melanoma

| Structure (SMILES) | TGI (A498 renal) [µM] | TGI (HCT-15 colon) [µM] | TGI (IGROV1 ovarian) [µM] | TGI (NCI-H226 lung) [µM] | TGI (OVCAR-8 ovarian) [µM] | TGI (SK-MEL-28 melanoma) [µM] | TGI (SK-MEL-5 melanoma) [µM] | TGI (SK-OV-3 ovarian) [µM] | TGI (SW-620 colon) [µM] | TGI (UACC-257 melanoma) [µM] | GI50 (A498 renal) [µM] | GI50 (HCT-15 colon) [µM] | GI50 (NCI-H226 lung) [µM] | GI50 (SK-MEL-5 melanoma) [µM] | GI50 (SK-OV-3 ovarian) [µM] | GI50 (SW-620 colon) [µM] | GI50 (IGROV1 ovarian) [µM] | GI50 (OVCAR-8 ovarian) [µM] | GI50 (SK-MEL-28 melanoma) [µM] | GI50 (UACC-257 melanoma) [µM] |
| --- | --- | --- | --- | --- | --- | --- | --- | --- | --- | --- | --- | --- | --- | --- | --- | --- | --- | --- | --- | --- |
| O=C(O)Cc1[nH]cnc1C(=O)O | > 100 | > 100 | > 100 | > 100 | > 100 | > 100 | > 100 | > 100 | > 100 | > 100 |  |  |  |  |  |  |  |  |  |  |
| COc1ccc(/C=C/[N+](=O)[O-])cc1 | 17.3 | 15.2 | 11.3 | 17.4 | 5.9 | 28.3 | 30.2 |  | > 100 | 8.09 |  |  |  |  |  |  |  |  |  |  |
| CSc1sc(=S)sc1SC | > 100 | > 100 | > 100 | > 100 | > 100 | > 100 | > 100 | > 100 | > 100 | > 100 |  |  |  |  |  |  |  |  |  |  |
| COc1ccc(/C(Cl)=C(\C=O)c2ccc(Cl)c(Cl)c2)cc1OC | 30.4 | 20.7 |  | 18.6 | 57.7 | 28 | 26.6 | 75.4 | 16.3 |  |  |  |  |  |  |  |  |  |  |  |
| COc1cc2c3c(c4cc(OC)c(OC)cc4c2cc1OC)[C@H](O)[C@@H]1CCCN1C3 |  | 5.45 |  | 3.64 |  | > 100 | 1.11 | 1.69 | > 100 | 1.15 |  |  |  |  |  |  |  |  |  |  |
| C[C@H](CCC1=NCCN1)[C@H]1CC[C@H]2[C@@H]3CC[C@@H]4C[C@H](O)CC[C@]4(C)[C@H]3CC[C@]12C | 34.5 | > 50.2 | 25.4 | 28.2 | 37.2 | 4.86 | 3.45 | 45.3 | > 48.9 | 6.6 |  |  |  |  |  |  |  |  |  |  |
| S=C1NN=C2C(=C3CCCC4C5CCCCC5N2C34)N1 (stereo not given) |  | > 100 | > 100 | > 100 | > 100 | > 100 | > 100 | > 100 | > 100 | > 100 |  |  |  |  |  |  |  |  |  |  |
| COc1cc2c3c(n(C4CCNCC4)c(=O)c2cc1OC)-c1cc2c(cc1C3=O)OCO2 | 3.32 | 1.77 |  | 2.94 |  |  | 1.46 | 1.75 | 1.95 |  | 0.619 | 0.396 | 0.635 | 0.322 | 0.402 | 0.225 |  |  |  |  |
| CCCCCCCCCCCCCCCCOCCCOP(=O)(O)C1CCCN(O)C1=O (stereo not given) | 12.4 | 12.1 | 4.77 | 14.3 | 27.8 | 44.3 | 14.7 | 16.7 | 22.3 | 14.8 | 1.73 | 0.472 | 2.1 | 3.74 | 3.62 | 1.47 | 0.609 | 3.29 | 3.46 | 3.23 |
| NC(=O)c1cc(C2OC(CO)C(O)C2O)nn1-c1ccc([N+](=O)[O-])cc1 (stereo not given) | > 100 | > 100 | > 100 | > 100 | > 100 | > 100 | > 100 | > 100 | > 100 | > 100 |  |  |  |  |  |  |  |  |  |  |
